According to patent US20190247353A1, “ACNE STRAIN-SELECTIVE ANTIBACTERIAL AGENT” (MOMOTANI JUNTENKAN CO., LTD., priority 2016, published 2019):

Tests used:
Assay type in all cases: cell-based, Propionibacterium acnes
[1] = system: HL043PA1 strain (RT5 strain); assay: Time course of viable cell count, HL043PA1 strain; conditions: 15 μg/mL, pH 6.0, anaerobic 37° C., 0 to 44 hours (FIG. 1b)
Experimental: (§1) To each strain suspension (pH 6.0, 5.0×10^5 cfu/mL) of the acne bacterium strain (HL053PA1 strain (RT4 strain), HL043PA1 strain (RT5 strain), and HL110PA3 strain (RT6 strain)) prepared in the same manner as in Example 1, pentadecanoic acid (C15:0) was added to mix together (final concentration of a fatty acid of 15 μg/mL, and final concentration of solvent DMSO of 0.5%), and each the mixture was statically cultured at 37° C. in a nitrogen atmosphere (anaerobic condition). Using a sample to which only DMSO was added at 0.5% (final concentration) as a control, it was confirmed that the influence of the solvent on the growth of each strain could be neglected.
(§2) The viable cell count in the culture solution was measured at 0, 2, 8, 18, 30 and 44 hours after the start of culturing. A viable cell count (cfu/mL) was calculated from the number of emerged colonies after culturing part of the culture solution on a GAM broth agar plate under anaerobic conditions for 3 days (FIG. 1).

[2] = system: HL053PA1 strain (RT4 strain); assay: Time course of viable cell count, HL053PA1 strain; conditions: 15 μg/mL, pH 6.0, anaerobic 37° C., 0 to 44 hours (FIG. 1a)
Experimental: as §1, §2

[3] = system: HL043PA1 strain (RT5 strain) and HL110PA3 strain (RT6 strain); assay: Coculture test, coculturing strain suspension-2; parameters: dose or concentration left out as unconfirmed; conditions: pH 6.0, 2 days (FIG. 2b)
Description: Acne bacteria strains (HL053PA1 strain (RT4 strain), HL043PA1 strain (RT5 strain), and HL110PA3 strain (RT6 strain)) were respectively precultured in the same manner as in Example 1.
The HL053PA1 strain (RT4 strain) and the HL110PA3 strain (RT6 strain) were suspended in a modified GAM broth liquid medium (pH 6.0) respectively at a concentration of 5.0×10^4 cfu/mL. Similarly, the HL043PA1 strain (RT5 strain) and the HL110PA3 strain (RT6 strain) were suspended respectively at a concentration of 5.0×10^4 cfu/mL. The suspensions were respectively designated as coculturing strain suspensions-1, and -2.
[…] Using a sample to which only 0.5% of DMSO was added as a control, it was confirmed that the influence of the solvent on the growth of each bacterium strain could be neglected.
The test sample was statically cultured under anaerobic conditions at 37° C. for 2 days. After the culture, part of the culture solution was cultured under anaerobic conditions on a GAM broth agar plate (pH 7) for 3 days. The bacterium strains were identified based on the morphology (particularly size) of the emerged colonies, and the viable cell count (cfu/mL) of each bacterium strain was measured. From the measurement results, the proportion of each bacterium strain in the entire microbial cells was calculated (FIG. 2).

SMILES: CCCCCCCCCCCCCCC(=O)O [Pentadecanoic acid (C15:0), Pentadecanoic acid]
- Growth of the HL043PA1 strain (RT5 strain), viable cell count time course [1]: suppressed first bacteriostatically and then bactericidally after 10 hours from the start of culturing
- Growth of the HL053PA1 strain (RT4 strain), viable cell count time course [2]: bacteriostatically suppressed
- Growth of the dominant strain in acne patients in coculture with RT6 strain [3]: suppressed selectively
